For one assay, the system named is neutrophils in ME. In words: Neutrophil infiltration into rat ME (myeloperoxidase staining) after IM. Type of assay: in vivo. The note with it: rats, 24 hours after IM (FIG. 10). As to the method: Animals within examples referring to FIGS. 2-9 were treated 90 minutes before operation with 0 mg/kg (placebo group), or 5 mg/kg bodyweight CNI-1493. In further experiments in rats or mice 0.1, 1.0 or 10 mg/kg CPSI-2364 were administered 90 minutes before surgical procedure via oral route. Oral (p.o.) administration was performed via a gastric tube. CNI-1493 and CPSI-2364 were dissolved in 2.5% mannitol. Placebo and CNI-1493 or CPSI-2364 groups were subdivided in two further groups. One was sham operated (laparotomy without IM) while the other underwent laparotomy followed by IM.
Specimens for histochemical analysis were prepared 24 h after operation and performed on whole mounts of the distal jejunum, as described before in detail (n=5-7 each group) 9. In brief, jejunal segments were opened, immersed in chilled Krebs-Ringer buffer (KRB) and fixed in 100% ethanol for 10 minutes. After washing with KRB, mucosa and submucosa were stripped off and ME whole mounts were used for detection of myeloperoxidase (MPO) positive cells (neutrophils). […] MPO+-cells were counted under a microscope (TE-2000, Nikon, Duesseldorf, Germany) in 5 randomly chosen areas in each specimen.
Example 3 was repeated in rats and mice, i.e. the infiltration of neutrophils within the ME after preoperative p.o. application of the drug was analyzed (FIGS. 10 and 11). […]

For assay [1], the system named is circular smooth muscle of the graft. Nature of the assay: Mechanical in vitro activity of mid-jejunum graft circular smooth muscle (bethanechol). It counts as in vivo, Lewis rats. To be noted: 1 mg/kg i.v. 90 min before; 18 h reperfusion; 100 μmol/L bethanechol. On the procedure: Syngeneic orthotopic small intestinal transplantation was performed in Lewis rats as previously described (Schwarz N T, Nakao A, Nalesnik M A, Kalff J C, Murase N, Bauer A J. Protective effects of ex vivo graft radiation and tacrolimus on syngeneic transplanted rat small bowel motility. Surgery 2002; 131: 413-423). […] Then the graft vascular bed was perfused with chilled UW solution (University of Wisconcin) and the intestinal lumen was irrigated with 50 ml cold 0.9% NaCl solution containing […]. neomycin sulfate (Uro Nebacetin N, Nycomed, Germany). The graft was stored in cold UW solution during the preparation of the recipient. […]
Mechanical in vitro activity of the mid-jejunum was evaluated at 18 hours after reperfusion using smooth muscle strips of the circular muscularis as described previously (N=8 each) (Kalff J C, Schraut W H, Simmons R L, Bauer A J. Surgical manipulation of the gut elicits an intestinal muscularis inflammatory response resulting in postsurgical ileus. Ann Surg 1998; 228: 652-663). […] The contractile response was analyzed with the ADI Chart© software and the contractions were calculated as grams per square millimeter per second by conversion of the weight and length of the strip to square millimeters of tissue.

In another assay the test system is IL-6 mRNA. Nature of the assay: Proinflammatory gene expression in ME, real-time RT-PCR: IL-6. Type of assay: in vivo, mice. The note with it: 5 mg/kg i.v. preoperative; 6 hours after IM; vs placebo IM. The text has this: The small bowel of the animals was subjected to a standardized, surgical manipulation (IM) as described previously (Kalff J C, Schraut W H, Simmons R L et al. Surgical manipulation of the gut elicits an intestinal muscularis inflammatory response resulting in postsurgical ileus. Ann Surg 1998; 228:652-663; Wehner S, Schwarz N T, Hundsdoerfer R et al. Induction of IL-6 within the rodent intestinal muscularis after intestinal surgical stress. Surgery 2005; 137:436-446). In brief, after anesthesia a midline abdominal incision was made into the peritoneal cavity. […]
Proinflammatory gene expression was analyzed in placebo and CNI-1493 (5 mg/kg) treated animals at 1, 3, 6 and 24 hours after operation; n=5-7 each group. […] Total RNA was analyzed in ME specimen that was prepared as described before (Wehner S, Behrendt F F, Lyutenski B N et al. Inhibition of macrophage function prevents intestinal inflammation and postoperative ileus in rodents. Gut 2007; 56:176-185). […] Expression of mRNA was quantified in triplicate by a RT-PCR with gene expression assays for […] (MCP-1; #Mm00441242_m1), CCL3 (MIP-1α #Mm00441258_m1), IL-6 (Assay ID #Mm00446190_ml), TNF-α (#Mm00443258_m1) and ICAM-1 (#Mm00516023_m1). […] Data quantification was performed by the ΔΔCT method. […]
A general note: Real-time PCR tracks product formation cycle by cycle.

As to `C/C(=N\N=C(N)N)c1cc(NC(=O)CCCCCCCCC(=O)Nc2cc(/C(C)=N/N=C(N)N)cc(/C(C)=N/N=C(N)N)c2)cc(/C(C)=N/N=C(N)N)c1.CS(=O)(=O)O.CS(=O)(=O)O.CS(=O)(=O)O.CS(=O)(=O)O` [CPSI-2364], in the assay on neutrophils in ME (0.1 mg/kg bodyweight p.o.), the “neutrophils in ME compared to the placebo IM group” value is on record as “led to the described results”. For the same compound, in the assay with neutrophils in ME (p.o. preoperative), the “neutrophils in ME compared to the placebo IM group” value is on record as “significant reduction of neutrophils”. For the same compound, in assay [1], the “circular smooth muscle contractile force” value is 3.63 grams/mm2/sec and the “increase in circular smooth muscle contractile activity in comparison to the vehicle grafts” value was 96%.

As for `C/C(=N\N=C(N)N)c1cc(NC(=O)CCCCCCCCC(=O)Nc2cc(/C(C)=N/N=C(N)N)cc(/C(C)=N/N=C(N)N)c2)cc(/C(C)=N/N=C(N)N)c1.Cl.Cl.Cl.Cl` [CNI-1493], the IL-6 expression diminished entry in the assay with IL-6 mRNA is listed as “more than 55%”.
